Measured values as given in US7141595B2, “Amino benzothiazole compounds with NOS inhibitory activity” (Neuraxon Inc., priority 2002, dated 2006).
Structures can show the parent of a compound that is named as a salt.

Experiments:
nNOS = nNOS (UniProt P29476); assay: nNOS enzyme assay (hemoglobin capture assay); assay type: biochemical; details: initial velocity, read-out: IC50 of NOS, nNOS
Method: (§1) The reaction mixture for iNOS contained 10 mM of L-arginine, […], 6.5 mM BH4 and 3 mM oxyhemoglobin in 100 mM Hepes (pH 7.5). All assays were in a final volume of […] and were initiated with enzyme.
(§2) IC50 and percent inhibition of NOS by the compounds of the invention were determined under initial velocity measurement condition with hemoglobin capture assay as described above using varying concentrations of the compounds of the invention.

eNOS = biological target: T1, eNOS (UniProt P29473); assay: eNOS enzyme assay (hemoglobin capture assay); assay type: biochemical; details: initial velocity, read-out: IC50 of NOS, eNOS
T1 sequence (P29473 1-1205): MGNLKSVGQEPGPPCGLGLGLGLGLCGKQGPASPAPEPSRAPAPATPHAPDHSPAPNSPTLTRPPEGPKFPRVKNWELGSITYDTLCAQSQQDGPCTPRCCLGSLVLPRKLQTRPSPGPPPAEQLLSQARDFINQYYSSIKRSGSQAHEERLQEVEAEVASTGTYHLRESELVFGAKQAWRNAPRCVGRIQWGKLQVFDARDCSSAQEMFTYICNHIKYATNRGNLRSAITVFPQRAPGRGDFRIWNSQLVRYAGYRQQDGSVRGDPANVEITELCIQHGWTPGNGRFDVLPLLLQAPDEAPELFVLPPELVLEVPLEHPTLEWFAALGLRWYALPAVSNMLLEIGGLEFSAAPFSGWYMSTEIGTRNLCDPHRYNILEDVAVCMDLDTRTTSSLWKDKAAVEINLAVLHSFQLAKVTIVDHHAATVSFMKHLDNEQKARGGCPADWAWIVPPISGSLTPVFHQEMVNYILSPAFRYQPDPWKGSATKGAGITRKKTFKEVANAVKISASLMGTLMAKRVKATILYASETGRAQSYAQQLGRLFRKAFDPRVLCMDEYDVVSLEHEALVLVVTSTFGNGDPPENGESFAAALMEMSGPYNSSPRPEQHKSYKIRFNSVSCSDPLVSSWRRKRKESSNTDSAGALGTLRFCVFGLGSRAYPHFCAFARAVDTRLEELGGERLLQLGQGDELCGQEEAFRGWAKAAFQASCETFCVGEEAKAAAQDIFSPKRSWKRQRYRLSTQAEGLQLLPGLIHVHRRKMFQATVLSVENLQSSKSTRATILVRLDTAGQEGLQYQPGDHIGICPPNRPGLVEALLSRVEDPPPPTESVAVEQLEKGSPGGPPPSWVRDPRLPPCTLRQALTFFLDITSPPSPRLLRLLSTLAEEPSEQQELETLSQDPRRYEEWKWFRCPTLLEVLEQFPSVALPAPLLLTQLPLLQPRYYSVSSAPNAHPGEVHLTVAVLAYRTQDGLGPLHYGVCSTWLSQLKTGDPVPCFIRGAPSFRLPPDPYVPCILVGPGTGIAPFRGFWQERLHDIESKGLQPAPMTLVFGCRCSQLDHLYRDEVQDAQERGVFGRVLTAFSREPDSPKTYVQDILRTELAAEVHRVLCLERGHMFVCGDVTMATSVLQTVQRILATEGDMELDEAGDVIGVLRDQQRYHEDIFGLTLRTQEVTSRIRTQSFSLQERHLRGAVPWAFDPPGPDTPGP
Method: The generation of nitric oxide by NOS was measured using the hemoglobin capture assay (Proc. Natl. Acad. Sci., U.S.A. 1990, 87, 714; Huang et al. J. Med. Chem. 2000, 43, 2938). An assay mixture for nNOS contained 10 mM L-arginine, 1.6 mM CaCl2, […] calmoduline, […], 6.5 mM BH4 and 3 mM oxyhemoglobin in 100 mM Hepes (pH 7.5). The reaction mixture for iNOS contained 10 mM of L-arginine, […], 6.5 mM BH4 and 3 mM oxyhemoglobin in 100 mM Hepes (pH 7.5). All assays were in a final volume of […] and were initiated with enzyme. Nitric oxide reacts with oxyhemoglobin to yield methehemoglobin which is detected at 401 nm (ε=19,700 M^−1cm^−1) on a Perkin-Elmer Lamda 10 UV/vis spectrophotometer.
as §2

iNOS = biological target: T2, iNOS (UniProt P29477); assay: iNOS enzyme assay (hemoglobin capture assay); assay type: biochemical; details: initial velocity, read-out: IC50 of NOS, iNOS
T2 sequence (P29477 1-1144): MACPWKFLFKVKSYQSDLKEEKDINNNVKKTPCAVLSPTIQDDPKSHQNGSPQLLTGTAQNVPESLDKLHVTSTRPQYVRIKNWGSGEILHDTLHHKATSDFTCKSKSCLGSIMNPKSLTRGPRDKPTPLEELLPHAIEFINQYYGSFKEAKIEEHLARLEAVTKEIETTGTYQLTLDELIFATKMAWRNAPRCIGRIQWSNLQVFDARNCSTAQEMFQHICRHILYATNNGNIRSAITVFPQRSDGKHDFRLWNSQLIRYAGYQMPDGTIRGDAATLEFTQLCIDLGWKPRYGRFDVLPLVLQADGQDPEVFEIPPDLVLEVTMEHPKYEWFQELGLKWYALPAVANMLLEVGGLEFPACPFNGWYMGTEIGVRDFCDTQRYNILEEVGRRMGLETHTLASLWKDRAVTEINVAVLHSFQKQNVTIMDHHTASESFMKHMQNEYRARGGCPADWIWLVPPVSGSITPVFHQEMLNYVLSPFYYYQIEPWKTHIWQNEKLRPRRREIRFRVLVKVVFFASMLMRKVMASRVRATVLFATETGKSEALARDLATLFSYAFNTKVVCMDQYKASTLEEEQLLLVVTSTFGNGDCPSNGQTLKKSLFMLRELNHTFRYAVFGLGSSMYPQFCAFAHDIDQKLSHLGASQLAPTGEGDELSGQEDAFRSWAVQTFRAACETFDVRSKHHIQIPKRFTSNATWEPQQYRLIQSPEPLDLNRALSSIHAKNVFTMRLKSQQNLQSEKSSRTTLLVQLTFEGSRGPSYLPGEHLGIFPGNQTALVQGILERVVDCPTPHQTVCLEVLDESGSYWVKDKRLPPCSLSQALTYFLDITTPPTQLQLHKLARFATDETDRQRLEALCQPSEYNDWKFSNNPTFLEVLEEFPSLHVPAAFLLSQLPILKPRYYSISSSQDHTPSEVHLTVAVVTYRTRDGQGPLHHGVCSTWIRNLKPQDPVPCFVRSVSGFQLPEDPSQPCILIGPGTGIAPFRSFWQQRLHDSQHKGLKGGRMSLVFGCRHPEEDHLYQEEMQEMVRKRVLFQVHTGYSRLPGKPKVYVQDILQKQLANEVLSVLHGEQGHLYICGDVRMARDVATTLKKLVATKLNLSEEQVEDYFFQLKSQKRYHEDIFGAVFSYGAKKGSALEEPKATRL
Method: as §1, §2

[1] = test system: Rat cortical neuronal cultures; assay: Neuroprotection of rat cortical cells against NMDA challenge; assay type: cell-based; details: 25 μM NMDA 30 minutes; 60-minute pre-incubation; % cell death by propidium iodide after 24 hrs
Method: Rat cortical neuronal cultures were exposed for 30 minutes to 25 μM NMDA in buffer with or without the test compounds according to previously reported procedures (J. Neurosci. 2000 October 1; 20(19):7183–92). Test compounds were added for a 60-minute pre-incubation period in order to maximize the chance of seeing neuroprotection. After 24 hrs cultures were treated with propidium iodide and the % cell death determined.

SMILES	IC50 (nNOS) [µM]	IC50 (eNOS) [µM]	IC50 (iNOS) [µM]	neuroprotection during NMDA challenge [1]
CSC(=N)Nc1ccc2nc(N)sc2c1 [Example 4, N-(2-Amino-benzothiazol-6-yl)-2-methylthiocarboximidamide]	4.2	83.3	327	
N=C(Nc1ccc2nc(N)sc2c1)c1cccs1 [Example 9, N-(2-Amino-benzothiazol-6-yl)-2-thiophenecarboximidamide]		119		
N=C(Nc1ccc2nc(NCCN3CCCC3)sc2c1)c1cccs1 [Example 13, N-[2-(2-pyrrolidin-1-ylethylamino)-benzothiazol-6-yl]-2-thiophenecarboximidamide]	11.9	100	125	
Nc1nc2cc(NC(=S)NC(=O)c3ccccc3)ccc2s1 [Example 17, 1-(2-Amino-benzothiazol-5-yl)-3-benzoyl-thiourea]	32.1	94	275	
NC(=S)Nc1ccc2sc(N)nc2c1 [Example 18, (2-Amino-benzothiazol-5-yl)-thiourea]	57.8	145	123	
N=C(Nc1ccc2sc(N)nc2c1)c1cccs1 [Example 20, N-(2-Amino-benzothiazol-5-yl)-thiophene-2-carboxamidine hydrobromide]		169	73	
N=C(Nc1ccc2nc(NCCc3cnc[nH]3)sc2c1)c1cccs1 [Example 36(e), N-{2-[2-(3H-Imidazol-4-yl)-ethylamino]-benzothiazol-6-yl}-thiophene-2-carboxamidine]				neuroprotection observed
N=C(Nc1ccc2nc(NCCc3ccc(Br)cc3)sc2c1)c1cccs1 [Example 36b, N-{2-[2-(4-Bromo-phenyl)-ethylamino]-benzothiazol-6-yl}-thiophene-2-carboxamidine]	1.46	110	91	
N=C(Nc1ccc2nc(NC3CCN(Cc4ccccc4)CC3)sc2c1)c1cccs1 [Example 36d, N-[2-(1-Benzyl-piperidin-4-ylamino)-benzothiazol-6-yl]-thiophene-2-carboxamidine]	1.6	210	163	
N=C(Nc1ccc2nc(NCCN3CCOCC3)sc2c1)c1cccs1 [Example 36f, N-[2-(2-Morpholin-4-yl-ethylamino)-benzothiazol-6-yl]-thiophene-2-carboxamidine]		> 300	> 300	neuroprotection observed
